Reference: article PMC10386076, “Discovery of RC-752, a Novel Sigma-1 Receptor Antagonist with Antinociceptive Activity: A Promising Tool for Fighting Neuropathic Pain” (Pharmaceuticals, 2023)

Assay: In vitro metabolic stability in mouse plasma
Assay type: in vitro ADME
Details: after 240 min of incubation
Description: The in vitro metabolic stability of compound (R/S)-1d was evaluated in mouse plasma and hepatic microsomes.

In the case of `OCC(CCN1CCCCC1)c1ccc(-c2ccccc2)cc1` (stereo not shown) [Compound 1d, 2-([1,1’-biphenyl]-4-yl)-4-(piperidin-1-yl)butan-1-ol], the compound remaining unaltered is reported as “approximately 100%”.
